The numbers were not newly measured in paper PMC10620911 (ACS Omega, 2023), which cites them from elsewhere.

The conditions of this series: structure-dependent.

With `Cc1noc(-c2ccc(-c3ccc(C4(C(=O)O)CC4)cc3)cc2)c1NC(=O)O[C@H](C)c1ccccc1` [BMS-986020], the hepatobiliary toxicity entry was “hepatobiliary toxicity”.
